Measurements reported in patent US11000033B2, “Ketone or oxime compound, and herbicide” (NISSAN CHEMICAL CORPORATION, priority 2014, dated 2021).

What was measured:
Type in all cases: in vivo
Cyperus difformis = test: Test Example 3: herbicidal effect by foliage application, Wagner pot (symbol E); details: application herbicide amount 320 g/ha
Summary of the method: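 Plants sown in submerged alluvial soil (water depth 0.1–0.5 cm) in a 25–30 °C greenhouse and grown 14 days. An emulsion of the compound diluted in water to a set herbicide amount was sprayed uniformly on foliage. Effect on each plant scored 3 weeks after application.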

Stellaria media = test: Test Example 5: herbicidal effect by foliage application, plastic box (symbol P); details: 320 g/ha, 3 weeks after application
Summary of the method: (§1)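 Emulsion formulation, diluted with water to the intended rate, was applied uniformly to leaves by small sprayer. Recipients were 14-day greenhouse-grown seedlings (25° C. to 30° C.). Assessment followed at 3 weeks.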

transplanted rice plant = test: Test Example 1: effect on crop, application before weed generation in submerged conditions (symbol a); details: application herbicide amount 320 g/ha
Summary of the method: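 Rice at 2.5 leaf stage transplanted into submerged soil (4 cm depth) sown with three weed species; herbicide applied before weed emergence.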

wheat = test: Test Example 4: effect on crop by soil treatment (symbol e); details: application herbicide amount 320 g/ha
Summary of the method: (§2)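 Crop seed is sown in spots together with several weed species in a box of sterilized diluvial soil. It is covered by about 1.5 cm of soil and kept in a greenhouse held between 25° C. and 30° C.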

Avena fatua = test: Test Example 4: herbicidal effect by soil treatment (symbol I); details: application herbicide amount 320 g/ha
Summary of the method: (§3)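 Seeds were sown in sterilized diluvial soil, covered with about 1.5 cm of soil, and the soil surface was sprayed with a water-diluted emulsion of the compound at a predetermined rate. Plants grew in a greenhouse at 25° C. to 30° C.; effects were scored visually 3 weeks after application.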

rapeseed = test: Test Example 4: effect on crop by soil treatment (symbol g); details: application herbicide amount 320 g/ha
Summary of the method: as §2

[1] = test system: Echinochloa oryzacola Vasing.; test: Test Example 2: herbicidal activity, application during weed generation in submerged conditions (symbol A); details: Table 23; application herbicide amount 320 g/ha; grade 0-5 by criteria of Test Example 1
Summary of the method: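 Seeds sown in flooded alluvial soil (4 cm water) were grown in a 25-30° C greenhouse. At the one- to two-leaf stage, diluted emulsion of compound was applied to the water surface at a predetermined rate. Effect was scored 3 weeks later.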

Galium spurium = test: Test Example 5: herbicidal effect by foliage application, plastic box (symbol Q); details: 320 g/ha, 3 weeks after application
Summary of the method: as §1

Digitaria ciliaris = test: Test Example 4: herbicidal effect by soil treatment (symbol F); details: application herbicide amount 320 g/ha
Summary of the method: as §3

soybean = test: Test Example 4: effect on crop by soil treatment (symbol d); details: application herbicide amount 320 g/ha
Summary of the method: as §2

rice = test: Test Example 4: effect on crop by soil treatment (symbol b); details: application herbicide amount 320 g/ha
Summary of the method: as §2

corn = test: Test Example 5: effect on crop by foliage application, plastic box (symbol c); details: 320 g/ha, 3 weeks after application
Summary of the method: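 Crop and weed seeds sown in spots in sterilized diluvial soil in plastic boxes and covered with about 1.5 cm soil. Plants raised in a greenhouse at 25° C. to 30° C. for foliar application.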

Structure (SMILES)	herbicidal effect on E, grade 0-5 (Cyperus difformis)	P: Stellaria media, herbicidal effect grade (Stellaria media)	Effect grade on crop, a: transplanted rice plant (transplanted rice plant)	e (wheat) effect on crop grade (wheat)	I (Avena fatua) herbicidal effect grade (Avena fatua)	g (rapeseed) effect on crop grade (rapeseed)	Herbicidal effect grade, A: Echinochloa oryzacola Vasing. [1]	Q: Galium spurium, herbicidal effect grade (Galium spurium)	F (Digitaria ciliaris) herbicidal effect grade (Digitaria ciliaris)	d (soybean) effect on crop grade (soybean)	b (directly sowed rice plant) effect on crop grade (rice)	c: corn, effect on crop grade (corn)
CON=C(C)CC1CC(OCC#C[Si](C)(C)C)=C(c2c(C)cc(C)cc2C)C1=O (stereo not drawn) [1-031]	0 (Herbicidal ratio of 5% or lower (almost no effect))	0 (Herbicidal ratio of 5% or lower (almost no effect))	0 (Herbicidal ratio of 5% or lower (almost no effect))	0 (Herbicidal ratio of 5% or lower (almost no effect))	0 (Herbicidal ratio of 5% or lower (almost no effect))	3 (Herbicidal ratio of 40% or higher and lower than 70%)	5 (Herbicidal ratio of 90% or more (almost completely withered))	0 (Herbicidal ratio of 5% or lower (almost no effect))	0 (Herbicidal ratio of 5% or lower (almost no effect))	0 (Herbicidal ratio of 5% or lower (almost no effect))	0 (Herbicidal ratio of 5% or lower (almost no effect))	0 (Herbicidal ratio of 5% or lower (almost no effect))
CON=C(C)C(C)C1CC(O)=C(c2c(C)cc(C)cc2C)C1=O (stereo not drawn) [1-032]	5 (Herbicidal ratio of 90% or more (almost completely withered))	4 (Herbicidal ratio of 70% or higher and lower than 90%)	5 (Herbicidal ratio of 90% or more (almost completely withered))	5 (Herbicidal ratio of 90% or more (almost completely withered))	5 (Herbicidal ratio of 90% or more (almost completely withered))	5 (Herbicidal ratio of 90% or more (almost completely withered))	5 (Herbicidal ratio of 90% or more (almost completely withered))	4 (Herbicidal ratio of 70% or higher and lower than 90%)	5 (Herbicidal ratio of 90% or more (almost completely withered))	0 (Herbicidal ratio of 5% or lower (almost no effect))	5 (Herbicidal ratio of 90% or more (almost completely withered))	5 (Herbicidal ratio of 90% or more (almost completely withered))
CCCCCCCCC(=O)OC1=C(c2c(C)cc(C)cc2C)C(=O)C(CC(C)=NOC)C1 (stereo not drawn) [1-033]	5 (Herbicidal ratio of 90% or more (almost completely withered))	3 (Herbicidal ratio of 40% or higher and lower than 70%)	5 (Herbicidal ratio of 90% or more (almost completely withered))	5 (Herbicidal ratio of 90% or more (almost completely withered))	4 (Herbicidal ratio of 70% or higher and lower than 90%)	5 (Herbicidal ratio of 90% or more (almost completely withered))	5 (Herbicidal ratio of 90% or more (almost completely withered))	1 (Herbicidal ratio of 5% or higher and lower than 20%)	5 (Herbicidal ratio of 90% or more (almost completely withered))	0 (Herbicidal ratio of 5% or lower (almost no effect))	5 (Herbicidal ratio of 90% or more (almost completely withered))	4 (Herbicidal ratio of 70% or higher and lower than 90%)
CCC(CC1CC(O)=C(c2c(C)cc(C)cc2C)C1=O)=NOC (stereo not drawn) [1-038]	5 (Herbicidal ratio of 90% or more (almost completely withered))	0 (Herbicidal ratio of 5% or lower (almost no effect))	5 (Herbicidal ratio of 90% or more (almost completely withered))	3 (Herbicidal ratio of 40% or higher and lower than 70%)	0 (Herbicidal ratio of 5% or lower (almost no effect))	4 (Herbicidal ratio of 70% or higher and lower than 90%)	5 (Herbicidal ratio of 90% or more (almost completely withered))	0 (Herbicidal ratio of 5% or lower (almost no effect))	5 (Herbicidal ratio of 90% or more (almost completely withered))	1 (Herbicidal ratio of 5% or higher and lower than 20%)	5 (Herbicidal ratio of 90% or more (almost completely withered))	4 (Herbicidal ratio of 70% or higher and lower than 90%)
COCCON=C(C)CC1CC(O)=C(c2c(C)cc(C)cc2C)C1=O (stereo not drawn) [1-041]	5 (Herbicidal ratio of 90% or more (almost completely withered))	3 (Herbicidal ratio of 40% or higher and lower than 70%)	5 (Herbicidal ratio of 90% or more (almost completely withered))	4 (Herbicidal ratio of 70% or higher and lower than 90%)	5 (Herbicidal ratio of 90% or more (almost completely withered))	4 (Herbicidal ratio of 70% or higher and lower than 90%)	5 (Herbicidal ratio of 90% or more (almost completely withered))	3 (Herbicidal ratio of 40% or higher and lower than 70%)	5 (Herbicidal ratio of 90% or more (almost completely withered))	1 (Herbicidal ratio of 5% or higher and lower than 20%)	5 (Herbicidal ratio of 90% or more (almost completely withered))	5 (Herbicidal ratio of 90% or more (almost completely withered))
CON=C(C)CC1CC(OC(=O)C(C)Cl)=C(c2c(C)cc(C)cc2C)C1=O (stereo not drawn) [1-042]	5 (Herbicidal ratio of 90% or more (almost completely withered))	0 (Herbicidal ratio of 5% or lower (almost no effect))	5 (Herbicidal ratio of 90% or more (almost completely withered))	1 (Herbicidal ratio of 5% or higher and lower than 20%)	3 (Herbicidal ratio of 40% or higher and lower than 70%)	4 (Herbicidal ratio of 70% or higher and lower than 90%)	5 (Herbicidal ratio of 90% or more (almost completely withered))	0 (Herbicidal ratio of 5% or lower (almost no effect))	5 (Herbicidal ratio of 90% or more (almost completely withered))	0 (Herbicidal ratio of 5% or lower (almost no effect))	5 (Herbicidal ratio of 90% or more (almost completely withered))	4 (Herbicidal ratio of 70% or higher and lower than 90%)
CON=C(C)CC1CC(OC(=O)COc2ccccc2)=C(c2c(C)cc(C)cc2C)C1=O (stereo not drawn) [1-043]	5 (Herbicidal ratio of 90% or more (almost completely withered))	4 (Herbicidal ratio of 70% or higher and lower than 90%)	5 (Herbicidal ratio of 90% or more (almost completely withered))	4 (Herbicidal ratio of 70% or higher and lower than 90%)	4 (Herbicidal ratio of 70% or higher and lower than 90%)	5 (Herbicidal ratio of 90% or more (almost completely withered))	5 (Herbicidal ratio of 90% or more (almost completely withered))	3 (Herbicidal ratio of 40% or higher and lower than 70%)	5 (Herbicidal ratio of 90% or more (almost completely withered))	1 (Herbicidal ratio of 5% or higher and lower than 20%)	5 (Herbicidal ratio of 90% or more (almost completely withered))	5 (Herbicidal ratio of 90% or more (almost completely withered))
